Where two headings read alike, the source gives them in different places.
How the values were obtained:
[1] = system: JJN-3 (NIK translocated) multiple myeloma cells; assay: Antiproliferative activity on JJN-3 multiple myeloma cells (CellTiter-Glo, 96 hr), Biological Assay C; type: cell-based, human; conditions: JJN-3 (NIK translocated) cells, averaged values, read-out: JJN-3 Proliferation inhibition (IC50 (nM))
Description: (§1) Determination of Antiproliferative Activity on JJN-3 (NIK Translocated) and KMS12-BM (NIK WT) Multiple Myeloma Cells
(§2) All compounds tested were dissolved in DMSO and further dilutions were made in culture medium. Final DMSO concentration was 0.3% (v/v) in cell proliferation assays. Viability was assessed using CellTiter-Glo cell viability assay kit (Promega). The human JJN-3 and KMS12-BM cells (DSMZ) were cultured in RPMI 1640 medium supplemented with 2 mM L-glutamine, and 10% fetal calf serum (PAA). Cells were routinely kept as suspension cells at 37° C. in a humidified 5% CO2 atmosphere. Cells were passaged at a seeding density of 0.2×10^6/ml twice a week. Cells were seeded in black tissue culture treated 96-well plates (Perkin Elmer). Densities used for plating ranged from 15000 (JJN3) to 20000 (KMS12BM) cells per well in a total volume of 135 μl medium. Drugs and/or solvents were added (15 μl) to a final volume of 150 μl. Following 96 hr of treatment, plates were removed from the incubator and allowed to equilibrate to room temperature for approx 10 min. 75 μl CellTiter-Glo reagent was added to each well that was then covered (Perkin Elmer Topseal) and shaken on plate shaker for 10 min. Luminescence was measured on a HTS Topcount (Perkin Elmer).
(§3) Within an experiment, the results for each treatment were the mean of 2 replicate wells. For initial screening purposes, compounds were tested using a 9 point dilution curve (serial 1:3 dilutions). For each experiment, controls (containing no drug) and a blank incubation (containing cells read at the time of compound addition) were run in parallel. The blank value was subtracted from all control and sample values. For each sample, the mean value for cell growth (in relative light units) was expressed as a percentage of the mean value for cell growth of the control.

[2] = biological target: recombinant human NF-kappaB-inducing kinase (NIK/MAP3K14) (Homo sapiens, UniProt Q99558); assay: Inhibition of auto-phosphorylation of recombinant human NIK/MAP3K14 activity (AlphaScreen), Biological Assay A; type: biochemical; conditions: averaged values over all measurements on all batches
recombinant human NF-kappaB-inducing kinase (NIK/MAP3K14), sequence (Q99558 whole entry): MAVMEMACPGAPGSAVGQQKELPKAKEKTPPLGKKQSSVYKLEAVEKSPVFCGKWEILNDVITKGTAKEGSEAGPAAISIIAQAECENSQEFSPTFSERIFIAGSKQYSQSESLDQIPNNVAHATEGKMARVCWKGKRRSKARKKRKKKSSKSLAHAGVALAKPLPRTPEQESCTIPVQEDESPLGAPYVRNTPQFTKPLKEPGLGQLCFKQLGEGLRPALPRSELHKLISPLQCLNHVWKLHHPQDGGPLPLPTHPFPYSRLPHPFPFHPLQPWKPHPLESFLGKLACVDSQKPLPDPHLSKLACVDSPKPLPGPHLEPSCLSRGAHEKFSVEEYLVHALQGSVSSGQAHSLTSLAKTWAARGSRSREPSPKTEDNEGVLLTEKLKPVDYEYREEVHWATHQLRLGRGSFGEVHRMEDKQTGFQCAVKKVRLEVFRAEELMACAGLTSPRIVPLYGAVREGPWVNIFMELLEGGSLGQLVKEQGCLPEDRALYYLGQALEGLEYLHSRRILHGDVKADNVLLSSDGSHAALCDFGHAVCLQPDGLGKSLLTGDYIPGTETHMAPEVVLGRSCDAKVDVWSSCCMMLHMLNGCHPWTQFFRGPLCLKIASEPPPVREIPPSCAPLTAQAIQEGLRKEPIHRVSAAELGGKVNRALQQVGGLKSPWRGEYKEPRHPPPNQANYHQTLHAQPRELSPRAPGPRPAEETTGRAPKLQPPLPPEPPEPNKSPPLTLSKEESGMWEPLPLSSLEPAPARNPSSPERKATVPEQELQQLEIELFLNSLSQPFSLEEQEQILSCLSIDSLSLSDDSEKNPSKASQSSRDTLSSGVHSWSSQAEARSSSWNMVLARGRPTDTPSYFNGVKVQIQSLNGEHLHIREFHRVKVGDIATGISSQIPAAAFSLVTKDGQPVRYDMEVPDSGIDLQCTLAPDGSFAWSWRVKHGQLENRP
Description: Inhibition of Auto-Phosphorylation of Recombinant Human NF-kappaB-Inducing Kinase (NIK/MAP3K14) Activity (AlphaScreen®)
NIK/MAP3K14 auto-phosphorylation activity was measured using the AlphaScreen® (αscreen) format (Perkin Elmer). All compounds tested were dissolved in dimethyl sulfoxide (DMSO) and further dilutions were made in assay buffer. Final DMSO concentration was 1% (v/v) in assays. Assay buffer was 50 mM Tris pH 7.5 containing 1 mM EGTA (ethylene glycol tetraacetic acid), 1 mM DTT (dithiothreitol), 0.1 mM Na3VO4, 5 mM MgCl2, 0.01% Tween® 20. Assays were carried out in 384 well Alphaplates (Perkin Elmer). Incubations consisted of compound, 25 microM Adenosine-5′-triphosphate (ATP), and 0.2 nM NIK/MAP3K14. Incubations were initiated by addition of GST-tagged NIK/MAP3K14 enzyme, carried out for 1 h at 25° C. and terminated by addition of stop buffer containing anti-phospho-IKK Ser176/180 antibody. Protein A Acceptor and Glutathione-Donor beads were added before reading using an EnVision® Multilabel Plate Reader (Perkin Elmer). Signal obtained in the wells containing blank samples was subtracted from all other wells and IC50's were determined by fitting a sigmoidal curve to % inhibition of control versus Log10 compound concentration.

[3] = system: KMS12-BM (NIK WT) multiple myeloma cells; assay: Antiproliferative activity on KMS12-BM multiple myeloma cells (CellTiter-Glo, 96 hr), Biological Assay C; type: cell-based, human; conditions: averaged values, read-out: KMS-12 Proliferation inhibition (IC50 (nM))
Description: as §1, §2, §3

[4] = system: P-IKKα levels in L363 (NIK translocated multiple myeloma) cells; assay: Effect of compounds on P-IKKα levels in L363 cells (Mesoscale sandwich immuno-assay), Biological Assay B; type: cell-based, human; conditions: 2 hr treatment, averaged values, read-out: Inhibition of pIKKα_L-363 (IC50 (nM))
Description: Effect of Compounds on P-IKKα Levels in L363 (NIK Translocated Multiple Myeloma) Cells
All compounds tested were dissolved in DMSO and further dilutions were made in culture medium. Final DMSO concentration was 1% (v/v) in cell assays. The human L363 cells (ATCC) were cultured in RPMI 1640 medium supplemented with GlutaMax and 10% fetal calf serum (PAA). Cells were routinely maintained at densities of 0.2×10^6 cells per ml-1×10^6 cells per ml at 37° C. in a humidified 5% CO2 atmosphere. Cells were passaged twice a week splitting back to obtain the low density. Cells were seeded in 96 well plates (Nunc 167008) at 2×10^6 per ml media in a volume of 75 μl per well plus 25 μl 1 μg/ml recombinant human B-cell activating factor (BAFF/BLyS/TNFSF13B). Seeded cells were incubated at 37° C. in a humidified 5% CO2 atmosphere for 24 hr. Drugs and/or solvents were added (20 μl) to a final volume of 120 μl. Following 2 hr treatment plates were removed from the incubator and cell lysis was achieved by the addition of 30 μl 5× lysis buffer followed by shaking on a plate shaker at 4° C. for 10 min. At the end of this incubation lysed cells were centrifuged at 800×g for 20 min at 4° C. and the lysate was assessed for P-IKKα levels by sandwich immuno-assay carried out in anti-rabbit antibody coated Mesoscale plates. Within an experiment, the results for each treatment were the mean of 2 replicate wells. For initial screening purposes, compounds were tested using an 8 point dilution curve (serial 1:3 dilutions). For each experiment, controls (containing MG132 and BAFF but no test drug) and a blank incubation (containing MG132 and BAFF and 10 μM ADS125117, a test concentration known to give full inhibition) were run in parallel. The blank incubation value was subtracted from all control and sample values. To determine the IC50 a sigmoidal curve was fitted to the plot of % inhibition of control P-IKKα levels versus Log10 compound concentration.
Note: Compounds 237 and 238 were tested at a maximum top concentration of 823 nM.

IC50 ([1]; Homo sapiens, JJN-3, 96 h) [nM] | IC50 [2] [nM] | IC50 ([3]; Homo sapiens, KMS-12-BM, 96 h) [nM] | IC50 ([4]; Homo sapiens, L-363, 2 h) [nM] | IC50 [1] [nM] | IC50 [3] [nM] | IC50 [4] [nM] | melting point [°C] | Compound
16 | 0.8 | 1480 | 1.9 |  |  |  |  | Cc1c(NC(=O)C2CCN(C)CC2)cc(Cl)cc1Nc1nccc(-c2cc(C#N)c3c(c2)[C@@](C)(CO)CN3)n1 [Compound 68]
 | 5.5 | > 10000 | 11.5 | 282 |  |  |  | CN1CC(F)C(Oc2ccc(C#N)cc2Nc2nccc(-c3cc(C#N)c4c(c3)[C@@](C)(CO)CN4)n2)C1 (stereo partly shown) [Compound 232]
63 | 1.7 | ~1580 | 11.5 |  |  |  |  | Cc1cc(P(C)(C)=O)c(Cl)cc1Nc1nccc(-c2cc(C#N)c3c(c2)[C@@](C)(CO)CN3)n1 [Compound 20]
91 | 0.8 | > 10000 | 2.2 |  |  |  |  | [2H]C([2H])(O)c1ccc(C)c(Nc2nccc(-c3cc(C#N)c4c(c3)[C@@](C)(CO)CN4)n2)c1 [Compound 150]
138 | 4.1 | 4900 | 25.7 |  |  |  |  | CC(C)(O)COc1ccc(C#N)cc1Nc1nccc(-c2cc(C#N)c3c(c2)[C@@](C)(CO)CN3)n1 [Compound 12]
759 | 4.2 | > 10000 | 20.9 |  |  |  |  | CNC(=O)c1ccc(C)c(Nc2nccc(-c3cc(C#N)c4c(c3)[C@@](C)(CO)CN4)n2)c1 [Compound 4]
46 | 6.3 | > 10000 | 7.7 |  |  |  |  | CN1CCC(Oc2ccc(C#N)cc2Nc2nccc(-c3cc(C#N)c4c(c3)[C@@](C)(CO)CN4)n2)C(F)C1 (stereo partly shown) [Compound 230]
57 | 11.3 | > 10000 | 41.7 |  |  |  |  | COc1cc(S(C)(=O)=O)c(Cl)cc1Nc1nccc(-c2cc(C#N)c3c(c2)C(C)(C)CN3)n1 [Compound 85]
251 | 19.1 | ~7590 | 12.9 |  |  |  |  | COc1cc(CO)c(Cl)cc1Nc1nccc(-c2cc(C#N)c3c(c2)C(C)(C)CN3)n1 [Compound 84]
7 | 2.5 | 631 | 11.5 |  |  |  |  | COc1cc(N2CCC(N(C)C)CC2)c(Cl)cc1Nc1nccc(-c2cc(C#N)c3c(c2)C(C)(CO)CN3)n1 (stereo not shown) [Compound 22]
 | 7.8 |  |  | 89 | > 10000 | 12.3 |  | CN1CCC(Oc2ccc(C#N)cc2Nc2nccc(-c3cc(C#N)c4c(c3)[C@@](C)(CO)CN4)n2)C(F)C1 (stereo partly shown) [Compound 231]
 | 31.6 |  | 302 |  |  |  |  | Cc1ccc(CN2CCOCC2)c(Nc2nccc(-c3cc(C#N)c4c(c3)[C@@](C)(CO)CN4)n2)c1 [Compound 222]
523 | 4.7 | > 10000 | 8.9 |  |  |  |  | [2H]C([2H])(O)c1cc(Nc2nccc(-c3cc(C#N)c4c(c3)[C@@](C)(CO)CN4)n2)c(C)cc1F [Compound 148]
 | 10 |  | 102 |  |  |  |  | Cc1ccc(COC(C)C)cc1Nc1nccc(-c2cc(C#N)c3c(c2)[C@@](C)(CO)CN3)n1 [Compound 149]
 | 33.1 |  | > 10000 |  |  |  |  | Cc1ccc(C2CN(C)C2)cc1Nc1nccc(-c2cc(C#N)c3c(c2)[C@@](C)(CO)CN3)n1 [Compound 210]
29 | 1.8 | > 10000 | 1.3 |  |  |  |  | Cc1cc(CCN2CCOCC2)c(C#N)cc1Nc1nccc(-c2cc(C#N)c3c(c2)[C@@](C)(CO)CN3)n1 [Compound 173]
 | 4.6 |  |  | 741 | > 10000 | 21.4 |  | CN1CC(F)C(Oc2ccc(C#N)cc2Nc2nccc(-c3cc(C#N)c4c(c3)[C@@](C)(CO)CN4)n2)C1 (stereo partly shown) [Compound 233]
35 | 7.1 | 1180 | 93.3 |  |  |  |  | CCN1CCN(Cc2cc(OC)c(Nc3nccc(-c4cc(C#N)c5c(c4)C(C)(C)CN5)n3)cc2Cl)CC1 [Compound 87]
617 | 1.8 | > 10000 | 6 |  |  |  |  | Cc1cc(F)c(C#N)cc1Nc1nccc(-c2cc(C#N)c3c(c2)[C@@](C)(CO)CN3)n1 [Compound 11]
 | 214 |  | > 832 |  |  |  |  | C[C@]1(CO)CNc2c(C#N)cc(-c3ccnc(Nc4ccccc4C4CCCN4)n3)cc21 (single isomer, unassigned) [Compound 237]
 | 955 |  |  |  |  | > 832 |  | C[C@]1(CO)CNc2c(C#N)cc(-c3ccnc(Nc4ccccc4C4CCCN4)n3)cc21 (single isomer, unassigned) [Compound 238]
 | 17.4 |  | 436 |  |  |  |  | Cc1ccc(C#N)cc1Nc1nccc(-c2cc(C#N)c3c(c2)[C@@](C)(COC(=O)CN2CCN(C)CC2)CN3)n1 [Compound 145]
148 | 7.2 | > 10000 |  |  |  |  | 210 | C[C@]1(CO)CNc2c(C#N)cc(-c3ccnc(Nc4cc(C#N)ccc4C4CC4)n3)cc21 [Compound 71]
105 | 3.6 | ~3310 |  |  |  |  | 228 | Cc1cc(C2CCOCC2)c(C#N)cc1Nc1nccc(-c2cc(C#N)c3c(c2)[C@@](C)(CO)CN3)n1 [Compound 75]
106 | 9.2 | > 10000 |  |  |  |  | 289 | Cc1ccc(Cl)cc1Nc1nccc(-c2cc(C#N)c3c(c2)C(C)(CO)CN3)n1 (stereo not shown) [Compound 27]
17 | 37.2 | 4170 |  |  |  |  | 221 | CC1(CO)CNc2c(C#N)cc(-c3ccnc(Nc4ccc(OC5CCOCC5)c(C(F)(F)F)c4)n3)cc21 (stereo not shown) [Compound 37]
170 | 4 | > 10000 |  |  |  |  | 274 | CC1(CO)CNc2c(C#N)cc(-c3ccnc(Nc4cc(C#N)ccc4Cl)n3)cc21 (stereo not shown) [Compound 32]
12 | 8.5 | 120 |  |  |  |  | 193 | COc1cc(C(=O)N2CCNC(C#N)C2)c(Cl)cc1Nc1nccc(-c2cc(C#N)c3c(c2)C(C)(C)CN3)n1 (stereo not shown) [Compound 121]
